Results from patent US10966976B2, “Methods for inducing an immune response by inhibition of nonsense mediated decay” (MOONSHOT PHARMA LLC, priority 2015, dated 2021).

Experiments:
MC38 tumor cells = assay: MC38 subcutaneous syngeneic tumor model, tumor volume by caliper; format: in vivo, C57BL/6 mice; design: Percent inhibition of tumor volume: concentration or dose not given beside the values; conditions: for Percent inhibition of tumor volume: vs vehicle group, negative values indicate an increase in tumor volume
Experimental: This Example evaluated the effectiveness of an NMDI alone and in combination with one or more immunotherapy agents for the treatment of tumor-bearing C57BL/6 mice.
Animals: Female 6-8 week old (estimated age at inoculation) C57BL/6 mice were obtained from Shanghai Lingchang Bio-Technology Co. Ltd (LC, Shanghai, China). The animals were housed at 20-26° C. with a 12 hours light and 12 hours darkness cycle.
Cell Culture: MC38 tumor cells were maintained in vitro as a monolayer culture in DMEM medium supplemented with 10% fetal bovine serum at 37° C. in an atmosphere of 5% CO2 in air. The tumor cells were routinely subcultured twice weekly. Cells in an exponential growth phase were harvested and counted for tumor inoculation.
Therapeutic compounds: Anti-PD-1 and anti-CTLA-4 antibodies were obtained from BioXCell as was an anti-CD8 antibody. The nonsense mediated decay inhibitor NMDI14 (4,5-Dimethyl-2-[[2-(1,2,3,4-tetrahydro-6,7-dimethyl-3-oxo-2-quinoxalinyl)acetyl]amino]-3-thiophenecarboxylic acid ethyl ester, Ethyl 2-{[(6,7-dimethyl-3-oxo-1,2,3,4-tetrahydro-2-quinoxalinyl)acetyl]amino}-4,5-dimethyl-3-thiophenecarboxylate) was obtained from ChemBridge Corp. (La Jolla, Calif.).
Tumor Inoculation: Each mouse was inoculated subcutaneously at the right lower flank region with MC38 tumor cells (1×10^6) in 0.1 mL of PBS for tumor development. The treatments were started when the mean tumor size reaches approximately 50 mm^3. The date of tumor cell inoculation was denoted as day 0.
Group assignment: Before grouping and treatment, all animals were weighed and the tumor volumes measured using a caliper. Tumor volume was used as numeric parameter to randomize selected animals into specified groups in order to minimize systematic error. The grouping was performed by using StudyDirector™ software (Studylog Systems, Inc. CA, USA). One optimal randomization design (generated by Matched distribution) showing minimal group to group variation in tumor volume was selected for group allocation.
After tumor cell inoculation, the animals were checked daily for morbidity and mortality as well as any effects of tumor growth and treatments on normal behavior such as mobility, visual estimation of food and water consumption, body weight gain/loss, eye/hair matting and any other abnormal effect. Tumor volumes were measured twice weekly at least in two dimensions using a caliper, and the volume expressed in mm^3 using the formula: V=0.5 a×b^2 where a and b are the long and short diameters of the tumor, respectively.

[1] = tested on: CD3+ immune cells infiltrating tumor tissue; assay: Immunohistochemistry of sectioned tumor tissue, immune cell infiltration; format: in vivo, C57BL/6 mice; conditions: FFPE tumor sections; FIG. 4
Experimental: Immunohistochemistry (IHC): Formalin-fixed paraffin-embedded (FFPE) tissue from tumor samples were sectioned to 4 urn. Antigen retrieval (AR) was conducted at 100° C., in EDTA buffer, at pH 9.0 for 20 min. Primary antibody (diluted with validated concentration), RT 60 min+ secondary antibody (ready-to-use), RT 60 min+Bond Polymer Refine Detection.

CCOC(=O)c1c(NC(=O)CC2Nc3cc(C)c(C)cc3NC2=O)sc(C)c1C (stereo not drawn) [NMDI14, 4,5-Dimethyl-2-[[2-(1,2,3,4-tetrahydro-6,7-dimethyl-3-oxo-2-quinoxalinyl)acetyl]amino]-3-thiophenecarboxylic acid ethyl ester]
Percent inhibition of tumor volume (MC38 tumor cells; Day 9): −0.11% | Mean tumor volume (MC38 tumor cells; Day 9 after inoculation, MC38 tumor-bearing C57BL/6 mice, i.p., NMDI14 20 mg/kg QDx3 weeks, antibodies 10 mg/kg (anti-CD8 200 ug/mouse) BIW x 3 weeks, n=8): 52.02 mm^3 | Mean tumor volume (MC38 tumor cells; Day 12, same model and dosing (Table 2)): 72.22 mm^3 | Percent inhibition of tumor volume (MC38 tumor cells; Day 12): 14.08% | Mean tumor volume (MC38 tumor cells; Day 15, same model and dosing (Table 2)): 135.90 mm^3 | Percent inhibition of tumor volume (MC38 tumor cells; Day 15): −4.42% | Mean tumor volume (MC38 tumor cells; Day 18, same model and dosing (Table 2)): 270.73 mm^3 | Percent inhibition of tumor volume (MC38 tumor cells; Day 18): 6.19% | Mean tumor volume (MC38 tumor cells; Day 22, same model and dosing (Table 2)): 405.71 mm^3 | Percent inhibition of tumor volume (MC38 tumor cells; Day 22): 15.14% | Mean tumor volume (MC38 tumor cells; Day 25, same model and dosing (Table 2)): 644.91 mm^3 | Percent inhibition of tumor volume (MC38 tumor cells; Day 25): 19.44% | Mean tumor volume (MC38 tumor cells; Day 29, same model and dosing (Table 2)): 999.58 mm^3 | Percent inhibition of tumor volume (MC38 tumor cells; Day 29): 20.58% | Mean tumor volume (MC38 tumor cells; Day 32, same model and dosing (Table 2)): 1395.65 mm^3 | Percent inhibition of tumor volume (MC38 tumor cells; Day 32): 21.74% | Tumor inhibition (in words) (MC38 tumor cells; MC38 tumor-bearing C57BL/6 mice, Table 6, FIG. 1-3): tumor inhibition-promoting properties | CD3+ immune cell infiltration of tumor tissue (IHC, in words) [1]: significant numbers of CD3+ immune cells infiltrating tumor tissue
